The target in assay [1] is HarmPBP1 (wild-type) (Helicoverpa armigera, UniProt F5ANH9). Briefly: Fluorescence binding assay (1-NPN probe), wild-type HarmPBP1. The note with it: for Ki / IC50: wild-type HarmPBP1, pH 7.4; for Ki: calculated from IC50, Ki = [IC50]/(1 + [1-NPN]/K1-NPN), read-out: Ki, dissociation constant; for IC50: mean ± S.E.M, three replicates, read-out: IC50, ligand concentration displacing 50% of the fluorescence intensity of the protein/1-NPN complex. The method, then:
(§1) Fluorescence binding assays were performed in a reaction system at pH7.4. Probed by 1-NPN, the maximum emission wavelengths of F12A, F36A, W37A, F119A and Q64A were in the range of 390–410 nm, which are similar to that of HarmPBP1 (400 nm).
(§2) Fluorescence binding assays were conducted on the F-380 fluorescence spectrophotometer (Gangdong Sci. & Tech, Tianjin, China) in a 1-cm light path quartz cuvette to further investigate the binding abilities of the principal pheromone components of H. armigera, Z11-16:Ald and Z9-16:Ald, to mutants. The fluorescent probe N-phenyl- 1-naphthylamine (1-NPN) was dissolved in methanol to yield a 1 mM stock solution. Both of the excitation and emission slit widths were 10 nm. Fluorescence of 1-NPN was excited at 337 nm and the emission spectra were recorded between 390 and 490 nm. Z11-16:Ald and Z9-16:Ald were purchased from Sigma-Aldrich (purity >98%). All chemicals used in this study were dissolved in HPLC purity grade methanol. Fluorescence measurements were performed according to Gu et al.[11]. Dissociation constants of the competitors were calculated from the corresponding IC50 (the ligand concentration displacing 50% of the NPN fluorescence intensity of the HarmPBP1/1-NPN complex) values, using the equation: Ki = [IC50]/(1 + [1-NPN]/K1-NPN), where [1-NPN] is the free concentration of 1-NPN and K1-NPN is the dissociation constant of the HarmPBP1/1-NPN complex.

Assay [2] has as its target HarmPBP1 mutant F12A (Helicoverpa armigera, UniProt F5ANH9, F39A). Nature of the assay: Fluorescence binding assay (1-NPN probe), mutant F12A. The method, then:
as §1
(§3) Four mutations of HarmPBP1, F12A (mutating phenylalanine to alanine at position 12), F36A (mutating phenylalanine to alanine at position 36), W37A (mutating tryptophan to alanine at position 37) and F119A (mutating phenylalanine to alanine at position 119) were generated by using the Quick-change lightning site-directed mutagenesis kit (Stratagene, USA), and a random mutation, Q64A (mutating glutanine to alanine at position 64) was set as control. The pGEM-T Easy/HarmPBP1 construct was used as template, and the specific primers designed for mutations were also listed in Table 1. The PCR conditions were 95 °C for 30 s, followed by 18 cycles of 95 °C for 30 s, 60 °C for 1 min, 68 °C for 4 min. Valid mutants were sub-cloned into pGEM-T easy vector (Promega, USA). Same expression vector and competent cells were used as the HarmPBP1. The recombinant mutant protein prokaryotic expression and purification were conducted as mentioned above.
as §2

The target of assay [3] is HarmPBP1 mutant F36A (Helicoverpa armigera, UniProt F5ANH9, F63A). Nature of the assay: Fluorescence binding assay (1-NPN probe), mutant F36A. The method, then:
as §1, §3, §2

Assay [4] addresses HarmPBP1 mutant W37A (Helicoverpa armigera, UniProt F5ANH9, W64A). Briefly: Fluorescence binding assay (1-NPN probe), mutant W37A. The method, then:
as §1, §3, §2

The target of assay [5] is HarmPBP1 mutant F119A (Helicoverpa armigera, UniProt F5ANH9, F146A). Briefly: Fluorescence binding assay (1-NPN probe), mutant F119A. The method, then:
as §1, §3, §2

The target of assay [6] is HarmPBP1 mutant Q64A (Helicoverpa armigera, UniProt F5ANH9, Q91A). Briefly: Fluorescence binding assay (1-NPN probe), control mutant Q64A. The method, then:
as §1, §3, §2

HarmPBP1 mutant F36A, sequence (F5ANH9 entry or part of it F63A): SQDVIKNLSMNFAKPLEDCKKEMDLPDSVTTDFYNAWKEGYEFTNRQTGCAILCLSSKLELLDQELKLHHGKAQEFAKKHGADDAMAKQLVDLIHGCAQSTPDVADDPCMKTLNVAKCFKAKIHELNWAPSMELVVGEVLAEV
HarmPBP1 mutant F12A, sequence (F5ANH9 entry or part of it F39A): as the sequence (F5ANH9 entry or part of it F63A) above, with F12A, A36F counted along it
HarmPBP1 mutant W37A, sequence (F5ANH9 entry or part of it W64A): as the sequence (F5ANH9 entry or part of it F63A) above, with A36F, W37A counted along it
HarmPBP1 mutant F119A, sequence (F5ANH9 entry or part of it F146A): as the sequence (F5ANH9 entry or part of it F63A) above, with A36F, F119A counted along it
HarmPBP1 mutant Q64A, sequence (F5ANH9 entry or part of it Q91A): as the sequence (F5ANH9 entry or part of it F63A) above, with A36F, Q64A counted along it
HarmPBP1 (wild-type), sequence (F5ANH9 entry or part of it): as the sequence (F5ANH9 entry or part of it F63A) above, with A36F counted along it

Take `CCCCCC/C=C\CCCCCCCC=O` [Z9-16:Ald, (Z)-9-hexadecenal]: the inhibition constant (Ki) (commonly the equilibrium dissociation constant of an inhibitor or competing ligand from its target) was 560 ± 50 nM in assay [1]; 3060 ± 220 nM in assay [2]; 720 ± 110 nM in assay [3]; 1490 ± 130 nM in assay [4]; 4610 ± 330 nM in assay [5]; 580 ± 30 nM in assay [6]. Further, the IC50 in assay [1] is 870 ± 80 nM; in assay [2], 4630 ± 270 nM; in assay [3], 980 ± 150 nM; in assay [4], 2220 ± 190 nM; in assay [5], 6910 ± 490 nM; in assay [6], 840 ± 60 nM.

On to `CCCC/C=C\CCCCCCCCCC=O` [Z11-16:Ald, (Z)-11-hexadecenal], for which the Ki was 670 ± 50 nM in assay [1]; 3100 ± 130 nM in assay [2]; 760 ± 80 nM in assay [3]; 1950 ± 80 nM in assay [4]; 5110 ± 470 nM in assay [5]; 770 ± 130 nM in assay [6]. Also, the IC50 in assay [1] is 1030 ± 80 nM; in assay [2] it was 4690 ± 330 nM; in assay [3], 1040 ± 60 nM; in assay [4], 2910 ± 120 nM; in assay [5] it was 7660 ± 560 nM; in assay [6], 1120 ± 210 nM.

For `c1ccc(Nc2cccc3ccccc23)cc1` [1-NPN, N-phenyl-1-naphthylamine], the Kd (usually the equilibrium constant for the complex coming apart) in assay [1] is 1790 ± 140 nM; in assay [2], 2100 ± 170 nM; in assay [3] it was 4050 ± 690 nM; in assay [4], 1870 ± 180 nM; in assay [5], 1960 ± 160 nM; in assay [6], 2390 ± 190 nM.

The values are drawn from PMC5715060, “Key site residues of pheromone-binding protein 1 involved in interacting with sex pheromone components of Helicoverpa armigera” (Scientific Reports, 2017).
